This passage reports TGI results from PubChem BioAssay (NCI).

Test systems include 786-0 renal; A549 NSCLC; BT-549 breast; CCRF-CEM leukemia; HCT-15 colon; LOX IMVI melanoma; M14 melanoma; MCF7 breast; MDA-MB-231 breast; NCI-H23 lung; NCI-H522 lung; OVCAR-3 ovarian; OVCAR-5 ovarian; PC-3 prostate; RXF 393 renal; SK-MEL-5 melanoma; SK-OV-3 ovarian; SR leukemia; UACC-257 melanoma.
Common to all, as to test: NCI tumour cell line growth inhibition, 48 h

The structures appear in SMILES notation.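 A five-concentration, 48-hour dose response in 96-well plates underlies each endpoint, interpolated linearly between surrounding concentrations. TGI: total growth inhibition.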

With `O=C(/C=C/c1ccccc1)CSc1nc2ccc(I)cc2c(=O)n1Cc1ccccc1`, the TGI is 35.9 µM in the test with 786-0 renal; above 100 µM in the test with A549 NSCLC; above 100 µM with BT-549 breast; above 59.2 µM in the test with CCRF-CEM leukemia; above 100 µM in the test on HCT-15 colon; above 100 µM with LOX IMVI melanoma. The TGI in the test with M14 melanoma is above 100 µM; with MCF7 breast, above 100 µM; in the test on MDA-MB-231 breast it was above 100 µM; with NCI-H23 lung it was above 100 µM; in the test on NCI-H522 lung, above 89.5 µM; in the test with OVCAR-3 ovarian, above 90.6 µM. Also, the TGI is above 100 µM in the test on OVCAR-5 ovarian; above 96.4 µM in the test on PC-3 prostate; above 94.5 µM with RXF 393 renal; 99.3 µM with SK-MEL-5 melanoma; above 100 µM in the test on SK-OV-3 ovarian; 33.3 µM in the test on SR leukemia. The molecule further gave a TGI in the test on UACC-257 melanoma above 100 µM.

For the molecule `O=c1oc2c(ccc3ccccc32)cc1C1=CSC2=NCCN12`, the TGI was above 100 µM in the test with 786-0 renal; above 100 µM in the test on A549 NSCLC; 71.1 µM with BT-549 breast; above 100 µM in the test with CCRF-CEM leukemia; above 100 µM in the test with HCT-15 colon; above 100 µM with LOX IMVI melanoma. Also, the TGI with M14 melanoma was above 100 µM; in the test with MCF7 breast, 67.8 µM; with MDA-MB-231 breast, above 100 µM; with NCI-H23 lung it was above 100 µM; with NCI-H522 lung, above 100 µM; in the test with OVCAR-3 ovarian, above 100 µM. Also, the TGI in the test on PC-3 prostate, with RXF 393 renal, in the test with SK-MEL-5 melanoma, in the test on SK-OV-3 ovarian, with SR leukemia and in the test with UACC-257 melanoma was above 100 µM each time.

In the case of `CCCCOCCOC1=CC(=O)c2c(O)ccc(O)c2C1=O`, the TGI came out at 3.03 µM with 786-0 renal; 3.41 µM with A549 NSCLC; 2.98 µM in the test with BT-549 breast; 4.04 µM with CCRF-CEM leukemia; 3.15 µM in the test with LOX IMVI melanoma; 2.18 µM with M14 melanoma. For the same molecule, the TGI was 3.15 µM in the test with MCF7 breast; 3.85 µM in the test with MDA-MB-231 breast; 3.17 µM in the test on NCI-H23 lung; 2.93 µM with NCI-H522 lung; 3.04 µM in the test on OVCAR-3 ovarian; 6.69 µM in the test on PC-3 prostate. The TGI is 3.02 µM in the test on RXF 393 renal; 0.422 µM in the test on SK-MEL-5 melanoma; above 10 µM in the test with SK-OV-3 ovarian; 5.11 µM in the test on SR leukemia; 2.23 µM in the test on UACC-257 melanoma.

Turning to `COC(=O)C1CCC(=O)N1C(c1ccccc1)c1cc(OC)c(OC)c(OC)c1` (stereo unspecified), the TGI in the test with 786-0 renal, in the test on A549 NSCLC, with BT-549 breast, in the test on CCRF-CEM leukemia, in the test on HCT-15 colon and in the test with LOX IMVI melanoma was above 100 µM in each case. In addition, the TGI in the test on M14 melanoma, in the test with MCF7 breast, in the test on MDA-MB-231 breast, in the test on NCI-H23 lung, in the test on NCI-H522 lung and in the test on OVCAR-3 ovarian was above 100 µM in each case. Further, the TGI with OVCAR-5 ovarian, in the test on PC-3 prostate, with RXF 393 renal, with SK-OV-3 ovarian, in the test with SR leukemia and in the test on UACC-257 melanoma was above 100 µM each time.

Consider `CCOC(=O)Nc1nn(C)c(=NCc2ccccc2)s1`, for which the TGI in the test on 786-0 renal, in the test with A549 NSCLC, in the test with BT-549 breast, with CCRF-CEM leukemia, with HCT-15 colon and in the test with LOX IMVI melanoma was above 100 µM each time. Also, the TGI in the test on MCF7 breast, in the test with MDA-MB-231 breast, in the test on NCI-H522 lung, in the test with OVCAR-3 ovarian, in the test with OVCAR-5 ovarian and with PC-3 prostate was above 100 µM throughout. For the same molecule, the TGI with RXF 393 renal, with SK-MEL-5 melanoma, with SK-OV-3 ovarian, with SR leukemia and with UACC-257 melanoma was above 100 µM each time.

For the molecule `CC(C)C/C=C/C1=NN(c2cccc(S(=O)(=O)O)c2)C2(C1)SCC(=O)N2c1nc2ccccc2s1` (stereo unspecified), the TGI in the test with 786-0 renal is 46.3 µM; with A549 NSCLC, above 100 µM; with BT-549 breast it was above 100 µM; in the test on CCRF-CEM leukemia it was 64.4 µM; with HCT-15 colon, above 100 µM; in the test with LOX IMVI melanoma it was 70 µM. Also, the TGI was above 100 µM in the test with M14 melanoma; above 100 µM with MCF7 breast; above 100 µM in the test on MDA-MB-231 breast; above 100 µM in the test with NCI-H23 lung; 60.2 µM with NCI-H522 lung; above 100 µM in the test on OVCAR-5 ovarian. For the same molecule, the TGI was above 100 µM in the test with PC-3 prostate; above 100 µM in the test on RXF 393 renal; above 100 µM with SK-MEL-5 melanoma; 74.5 µM in the test with SR leukemia; above 100 µM in the test on UACC-257 melanoma.

`O=C1NC(=O)C(COCc2ccccc2)C2=C1SCCC2` (stereo unspecified): the TGI with 786-0 renal, in the test on A549 NSCLC, in the test on BT-549 breast, in the test on CCRF-CEM leukemia, in the test with HCT-15 colon and in the test with LOX IMVI melanoma was above 100 µM in each case. Besides, the TGI in the test with M14 melanoma, in the test on MCF7 breast, in the test on MDA-MB-231 breast, in the test on NCI-H23 lung, in the test with NCI-H522 lung and in the test on OVCAR-3 ovarian was above 100 µM in each case. Further, the TGI in the test on PC-3 prostate, in the test on RXF 393 renal, with SK-MEL-5 melanoma, in the test with SR leukemia and in the test with UACC-257 melanoma was above 100 µM each time.

As to `Cn1c(=O)c2c(ncn2CCCCOc2ccc3c(c2)[n+]([O-])nc(N)[n+]3[O-])n(C)c1=O`, the TGI with 786-0 renal is above 100 µM; with A549 NSCLC it was above 100 µM; in the test with BT-549 breast, 70.6 µM; in the test on CCRF-CEM leukemia it was above 100 µM; with HCT-15 colon, above 100 µM; in the test on LOX IMVI melanoma, above 100 µM. For the same molecule, the TGI in the test with M14 melanoma, in the test on MCF7 breast, in the test with MDA-MB-231 breast, in the test with NCI-H23 lung, in the test on NCI-H522 lung and in the test with OVCAR-3 ovarian was above 100 µM each time. The TGI in the test with PC-3 prostate is above 100 µM; with RXF 393 renal, 80.4 µM; in the test on SK-MEL-5 melanoma, 22.1 µM; with SK-OV-3 ovarian, above 100 µM; in the test with SR leukemia, above 100 µM; with UACC-257 melanoma, above 100 µM.
